ChEMBL document CHEMBL1201862, “PubChem BioAssay data set” (2004)
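Values below derive from 48-hour exposures of cells grown in 96-well plates, with endpoints linearly interpolated between the two concentrations bracketing the appropriate inhibition level. Here, GI50 denotes the concentration required for 50% inhibition of growth.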 Active and inactive are the calls of the source. No stated cut-off is given here; in the data, active = GI50 up to about 1.1 µM and inactive = higher.

Experiments:
Assay in all cases: growth of human tumour cells (NCI), 48 h
OVCAR-5 = tested on: OVCAR-5
RPMI-8226 = tested on: RPMI-8226
MCF7 = tested on: MCF7
PC-3 = tested on: PC-3
HCT-116 = tested on: HCT-116
786-0 = tested on: 786-0
HCT-15 = tested on: HCT-15
HCC 2998 = tested on: HCC 2998
T47D = tested on: T47D
EKVX = tested on: EKVX
RXF 393 = tested on: RXF 393
NCI-H226 = tested on: NCI-H226
SK-MEL-5 = tested on: SK-MEL-5
TK-10 = tested on: TK-10
SN12C = tested on: SN12C
SF-539 = tested on: SF-539
DU-145 = tested on: DU-145

SMILES	GI50 (OVCAR-5)	GI50 (RPMI-8226)	GI50 (MCF7)	GI50 (PC-3)	GI50 (HCT-116)	GI50 (786-0)	GI50 (HCT-15) [µM]	GI50 (HCC 2998)	GI50 (T47D)	GI50 (EKVX)	GI50 (RXF 393)	GI50 (NCI-H226)	GI50 (SK-MEL-5)	GI50 (TK-10)	GI50 (SN12C)	GI50 (SF-539)	GI50 (DU-145)
O=C1Oc2ccccc2C(=O)/C1=C\Nc1nc(-c2ccc(O)c(O)c2)cs1	16.2 µM (inactive)	1.53 µM (inactive)	3.94 µM (inactive)	3.24 µM (inactive)	2.7 µM (inactive)	2.54 µM (inactive)	3.39	7.14 µM (inactive)	4.55 µM (inactive)	12.7 µM (inactive)	6.03 µM (inactive)	6.31 µM (inactive)	4.8 µM (inactive)	3.26 µM (inactive)	4.79 µM (inactive)	5.46 µM (inactive)	4.94 µM (inactive)
O=C(Nc1ccccn1)/C(=C\C(=O)c1ccc(Cl)cc1)Nc1ccccc1	–	> 10 µM (inactive)	> 10 µM (inactive)	> 10 µM (inactive)	–	7.16 µM (inactive)	> 10	> 10 µM (inactive)	> 10 µM (inactive)	> 10 µM (inactive)	> 10 µM (inactive)	–	> 10 µM (inactive)	> 10 µM (inactive)	> 10 µM (inactive)	–	> 10 µM (inactive)
OC1(c2ccccc2)CC2CCC(C1)N2CCc1ccccc1 (centres undefined)	26.1 µM (inactive)	30.3 µM (inactive)	28.6 µM (inactive)	41.6 µM (inactive)	40.3 µM (inactive)	> 100 µM (inactive)	89.9	58.3 µM (inactive)	45 µM (inactive)	97.5 µM (inactive)	> 100 µM (inactive)	61 µM (inactive)	13.7 µM (inactive)	> 100 µM (inactive)	> 100 µM (inactive)	81.8 µM (inactive)	48.4 µM (inactive)
COc1ccc2c(c1)CCc1c-2n(CCN2CCOCC2)c2ccc(OC)cc12	> 100 µM (inactive)	63.5 µM (inactive)	85.5 µM (inactive)	63.2 µM (inactive)	63.2 µM (inactive)	82.8 µM (inactive)	41	3.92 µM (inactive)	> 100 µM (inactive)	–	> 100 µM (inactive)	25.5 µM (inactive)	54.7 µM (inactive)	> 100 µM (inactive)	> 100 µM (inactive)	> 100 µM (inactive)	> 100 µM (inactive)
CN1C2CCC1CC(=CCOC(c1ccc(F)cc1)c1ccc(F)cc1)C2	17.4 µM (inactive)	15.3 µM (inactive)	16.6 µM (inactive)	16.1 µM (inactive)	11.8 µM (inactive)	14 µM (inactive)	15.7	4 µM (inactive)	17.6 µM (inactive)	18.8 µM (inactive)	14.5 µM (inactive)	20.3 µM (inactive)	10.3 µM (inactive)	14.9 µM (inactive)	17.3 µM (inactive)	16.4 µM (inactive)	16.9 µM (inactive)
C[C@@H]1C(=O)CC2(O)[C@@]13C[C@@H](OC(=O)[C@@H]3O)[C@@H](C)[C@@]21COC1=O (some centres undefined)	> 100 µM (inactive)	> 100 µM (inactive)	> 100 µM (inactive)	> 100 µM (inactive)	> 100 µM (inactive)	> 100 µM (inactive)	> 100	> 100 µM (inactive)	> 100 µM (inactive)	> 100 µM (inactive)	> 100 µM (inactive)	> 100 µM (inactive)	> 100 µM (inactive)	> 100 µM (inactive)	> 100 µM (inactive)	> 100 µM (inactive)	> 100 µM (inactive)
CCCCCn1c(=O)c2c(=O)[nH][nH]c2c2ccccc21	> 100 µM (inactive)	> 100 µM (inactive)	> 100 µM (inactive)	> 100 µM (inactive)	> 100 µM (inactive)	> 100 µM (inactive)	> 100	> 100 µM (inactive)	> 100 µM (inactive)	–	> 100 µM (inactive)	> 100 µM (inactive)	> 100 µM (inactive)	> 100 µM (inactive)	> 100 µM (inactive)	> 100 µM (inactive)	> 100 µM (inactive)
CCOC(=O)c1ccc(NC(=O)Oc2ccc3c(C)cc(=O)oc3c2)cc1	23.1 µM (inactive)	30.3 µM (inactive)	30.8 µM (inactive)	38.4 µM (inactive)	28.2 µM (inactive)	45.6 µM (inactive)	33.7	23.7 µM (inactive)	22.2 µM (inactive)	42.9 µM (inactive)	58.6 µM (inactive)	32.7 µM (inactive)	14.7 µM (inactive)	> 100 µM (inactive)	33.1 µM (inactive)	> 100 µM (inactive)	37.2 µM (inactive)
OCc1ccc2c(c1)CC1(C2)Cc2cc3c(cc2C1)CCC3	> 100 µM (inactive)	2.76 µM (inactive)	2.5 µM (inactive)	1.19 µM (inactive)	3.72 µM (inactive)	5.51 µM (inactive)	2.92	6.12 µM (inactive)	4.82 µM (inactive)	8.04 µM (inactive)	2.58 µM (inactive)	22.4 µM (inactive)	2.3 µM (inactive)	13 µM (inactive)	2.45 µM (inactive)	3.57 µM (inactive)	5.89 µM (inactive)
CCOC(=O)CSc1[nH]c(NC(=S)Nc2ccccc2)c(C(N)=O)c1C(N)=O	–	> 10 µM (inactive)	> 10 µM (inactive)	> 10 µM (inactive)	–	> 10 µM (inactive)	> 10	6.28 µM (inactive)	> 10 µM (inactive)	> 10 µM (inactive)	> 10 µM (inactive)	–	> 10 µM (inactive)	> 10 µM (inactive)	> 10 µM (inactive)	–	> 10 µM (inactive)
COC(=O)c1ccc(C)cc1CC1Cc2ccc(C)cc2C1=O (centres undefined)	19.5 µM (inactive)	7.91 µM (inactive)	4.39 µM (inactive)	12.1 µM (inactive)	5.15 µM (inactive)	13.7 µM (inactive)	3.24	10.1 µM (inactive)	5.55 µM (inactive)	8.04 µM (inactive)	10.1 µM (inactive)	6.04 µM (inactive)	7.29 µM (inactive)	13 µM (inactive)	12.2 µM (inactive)	5.6 µM (inactive)	22.9 µM (inactive)
Cc1ccc(/N=C2N=C(Cl)/C(=C\c3ccccc3)N\2)cc1	> 100 µM (inactive)	5.11 µM (inactive)	> 100 µM (inactive)	> 79.3 µM (inactive)	> 100 µM (inactive)	> 100 µM (inactive)	2.88	12.2 µM (inactive)	88.7 µM (inactive)	> 100 µM (inactive)	> 100 µM (inactive)	> 100 µM (inactive)	48.8 µM (inactive)	> 100 µM (inactive)	> 100 µM (inactive)	> 100 µM (inactive)	64.6 µM (inactive)
O=C(/C=C/c1ccccc1)N1CCCCC1	> 100 µM (inactive)	> 100 µM (inactive)	> 100 µM (inactive)	> 100 µM (inactive)	> 100 µM (inactive)	> 100 µM (inactive)	> 100	> 100 µM (inactive)	> 100 µM (inactive)	> 100 µM (inactive)	> 100 µM (inactive)	> 100 µM (inactive)	> 100 µM (inactive)	> 100 µM (inactive)	> 100 µM (inactive)	> 100 µM (inactive)	> 100 µM (inactive)
COc1cccc(N(CN2C(=O)CCC2C(=O)O)C(C)=O)c1 (centres undefined)	> 100 µM (inactive)	> 100 µM (inactive)	> 100 µM (inactive)	> 100 µM (inactive)	> 100 µM (inactive)	> 100 µM (inactive)	> 100	> 100 µM (inactive)	> 100 µM (inactive)	> 100 µM (inactive)	> 100 µM (inactive)	> 100 µM (inactive)	> 100 µM (inactive)	> 100 µM (inactive)	> 100 µM (inactive)	> 100 µM (inactive)	> 100 µM (inactive)
O=c1oc2ccc(Cl)cc2cc1-c1cn2ccsc2n1	–	41.5 µM (inactive)	20.9 µM (inactive)	52.6 µM (inactive)	36.6 µM (inactive)	58.5 µM (inactive)	36.1	34.1 µM (inactive)	34.5 µM (inactive)	26.6 µM (inactive)	45.8 µM (inactive)	–	51.1 µM (inactive)	> 100 µM (inactive)	57 µM (inactive)	98.4 µM (inactive)	95.7 µM (inactive)
CCCCCCCCCCCCCCCCCCNC(=O)C(N)Cc1ccc(OCc2ccccc2)cn1 (centres undefined)	21.1 µM (inactive)	18.5 µM (inactive)	19.4 µM (inactive)	14.2 µM (inactive)	21.5 µM (inactive)	24.5 µM (inactive)	18.9	11.9 µM (inactive)	20.4 µM (inactive)	22.6 µM (inactive)	20 µM (inactive)	–	18 µM (inactive)	15.4 µM (inactive)	27.7 µM (inactive)	–	21.3 µM (inactive)
CC(C)=NNc1snnc1C(N)=O	> 100 µM (inactive)	> 100 µM (inactive)	> 100 µM (inactive)	> 100 µM (inactive)	> 100 µM (inactive)	> 100 µM (inactive)	–	> 100 µM (inactive)	> 100 µM (inactive)	> 100 µM (inactive)	> 100 µM (inactive)	> 100 µM (inactive)	> 100 µM (inactive)	> 100 µM (inactive)	> 100 µM (inactive)	> 100 µM (inactive)	> 100 µM (inactive)
COc1cc([C@@H]2c3cc4c(cc3[C@H](OC3OC5COC(c6ccco6)OC5C(O)C3O)C3COC(=O)[C@@H]32)OCO4)cc(OC)c1OC (some centres undefined)	7.66 µM (inactive)	7.01 µM (inactive)	3.85 µM (inactive)	3.48 µM (inactive)	3.27 µM (inactive)	3.3 µM (inactive)	3.2	4 µM (inactive)	13.4 µM (inactive)	–	2.82 µM (inactive)	4.17 µM (inactive)	4.21 µM (inactive)	> 100 µM (inactive)	–	2.74 µM (inactive)	3.15 µM (inactive)
